# Data published in patent US12595269B2, “Morpholine-like monoamine releasers” (Solvonis Therapeutics Ireland Holdings Limited, priority 2022, dated 2026).
# Test system: extracellular dopamine (DA), serotonin (5-HT), and noradrenaline (NE) levels in the nucleus accumbens
# Experiment: In vivo microdialysis of monoamines in rat nucleus accumbens after intraperitoneal administration
# Design: species or system Sprague Dawley rats
# Details: rat NAcc microdialysis, IP
# Method: Methods and Procedure: This study was conducted in compliance with previously described procedures to assure data integrity, adherence to GLP regulations, and standard preclinical study and surgery procedures. The in vivo microdialysis technique was applied to measure the over-time variations of DA, 5-HT, and NE extracellular (EC) concentrations in conscious, freely-moving Sprague Dawley rats. Levels of the neurotransmitters in microdialysis samples were determined using LC-MS/MS analysis. The experiment was also conducted with MDMA, which was used for comparative purposes.
# As it relates to cannula implantation, the rats were anesthetized with isoflurane 4% in oxygen (2-2.5 L/min), then the isoflurane concentration 2-2.5% was maintained via a nose cone adapted to the stereotaxic apparatus. The rats were treated with meloxicam (0.2 mg/kg, subcutaneously, sc; Meloxidolor) and amoxicilline (150 mg/kg, sc, Betamox LA). The skull was then shaved and disinfected. Rats were then placed in a stereotaxic apparatus for small animals. One vertical guide cannula was inserted through a 1 mm hole drilled on the exposed skull. Coordinates—with respect to bregma—to target specific brain areas, followed indications from stereotaxic atlas of the rat brain. Specifically a guide cannula (MAB 4.12.IC, Agn Tho's AB, Lidingo, Sweden) was inserted in the NAcc (anteroposterior+1.6; lateral −1.6; dorsoventral −6.0). The guide cannula was then secured with dental cement and 2-4 screws. At the end of the surgery the animal was isolated in a single cage during recovery, for a period of at least one week, during which animal health conditions were checked twice daily and the weight recorded twice a week. Animals continued to be housed singly throughout the experiment. One day before the experiment the cannula stylet was removed and a microdialysis probe with a dialyzing length of 2 mm (MAB 4.12.2 Cu, Agn Tho's AB, Lidingo, Sweden) was inserted. Probes can be re-used 2 times for 2 experimental sessions after appropriate cleaning with fresh milliQ water.
# Post-surgery, the rats were maintained in a heating chamber prior to waking up in order to avoid hypothermia that could be caused by anaesthesia. 5 mL of physiologic solution was subcutaneously administered immediately after surgery, and once/day for 2-3 days, if signs of dehydration are noticed. Meloxicam (Meloxidolor) 0.2 mg/kg was again administered subcutaneously the day after surgery as well as after 48h after surgery together with Amoxicilline Long Acting (Betamox LA) 150 mg/kg. Health status and body weight was checked every day during the first week.
# The animals were treated with test compounds described herein, MDMA, or their vehicle (saline) according to a Latin square design over 5 separate experimental days (one day/week). The treatments were administered in a volume of 1 mL/kg intraperitoneally.
# On the day of the experiment, each animal was taken into the laboratory in its home cage. Inlet tubing of the probe was attached to a dual quartz-lined two channel liquid swivel mounted on a low mass spring counterbalance arm which, in turn, was connected to a gas-tight syringe on a microinfusion pump. […] An equilibration period of about two hours of perfusion was allowed before collecting samples. Following the equilibration period, 4 basal samples were collected for each experimental animal followed by further 10 post-treatment samples. Samples were collected every 20 minutes (up to 3 hours and 20 minutes post-treatment) by means of a refrigerated auto-sampler (Univentor 820 Microsampler, Agn tho's, Sweden) maintained at +8° C. At the end of all experimental sessions, 2 μL of 0.1% methylene blue solution was injected through the microdialysis probe, animals were euthanized, and their brains removed to confirm the correct probe-position.
# The concentrations of DA, 5-HT and NE in CSF samples were determined using an optimized method based on LC-MS/MS analysis. […]
Compound,5HT level relative to baseline levels (100%) (20 min post-administration) [%],DA level relative to baseline levels (100%) (20 min post-administration) [%],NE level relative to baseline levels (100%) (20 min post-administration) [%],5HT level relative to baseline levels (100%) (40 min post-administration) [%],DA level relative to baseline levels (100%) (40 min post-administration) [%],NE level relative to baseline levels (100%) (40 min post-administration) [%],5HT level relative to baseline levels (100%) (60 min post-administration) [%],DA level relative to baseline levels (100%) (60 min post-administration) [%],NE level relative to baseline levels (100%) (60 min post-administration) [%],5HT level relative to baseline levels (100%) (200 min post-administration) [%],DA level relative to baseline levels (100%) (200 min post-administration) [%],NE level relative to baseline levels (100%) (200 min post-administration) [%]
"Clc1ccc(C23CNC(CO2)C3)cc1Cl (centres unmarked) [522A, 1-(3,4-dichlorophenyl)-2-oxa-5-azabicyclo[2.2.1]heptane]",100,100,130,380,160,150,480,185,160,200,125,125
"CNC(C)Cc1ccc2c(c1)OCO2 (centres unmarked) [MDMA, reference compound]",130,120,120,2150,400,500,,560,500,900,300,300
